From patent US20260256859A1, “COMPOSITION FOR PREVENTING, AMELIORATING, OR TREATING TUBERCULOSIS COMPRISING EXTRACT OF PHILADELPHUS SP. PLANT AS ACTIVE INGREDIENT” (priority 2023, published 2026)

Legend:
[1] = tested on: Mycobacterium tuberculosis H37Rv; assay: MIC and FIC of Philadelphus tenuifolius leaf extract alone or combined with an anti-tuberculosis agent in Rv-infected BMDM; format: cell-based; conditions: Rv-infected mouse BMDM, 48 hours; for MIC combination, RIF (antibiotic component): MIC of the antibiotic when combined with Philadelphus tenuifolius leaf extract; for MIC alone, Antibiotics: MIC = lowest concentration inhibiting more than 99% of bacterial growth
[2] = tested on: Mycobacterium tuberculosis H37Rv; assay: Intracellular M. tuberculosis CFU count in infected bone marrow-derived macrophages after treatment with extract or anti-tuberculosis agent; format: cell-based; conditions: C57BL/6 mouse BMDM, H37Rv MOI=1, anti-tuberculosis agent 100 ng/mL, 48 hours; FIG. 2

Compound | MIC combination, RIF (antibiotic component) [1] [µg/mL] | MIC alone, Antibiotics [1] [µg/mL] | number of intracellular M. tuberculosis in mouse bone marrow-derived macrophages (CFU) vs infection control (Rv) [2]
CC[C@@H](CO)NCCN[C@@H](CC)CO [ethambutol] | 0.3 | 4 | statistically significantly reduced
NNC(=O)c1ccncc1 [isoniazid] | 0.03 | 0.1 | statistically significantly reduced
CO[C@H]1/C=C/O[C@@]2(C)Oc3c(C)c(O)c4c(O)c(c(/C=N/N5CCN(C)CC5)c(O)c4c3C2=O)NC(=O)/C(C)=C\C=C\[C@H](C)[C@H](O)[C@@H](C)[C@@H](O)[C@@H](C)[C@H](OC(C)=O)[C@@H]1C [rifampicin] | 0.03 | 0.1 | 
